Test results: PubChem BioAssay (NCI)
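Following 48 hours of exposure in 96-well plates, responses at five concentrations were used to interpolate endpoints linearly. The concentration for full growth arrest is given as TGI.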

Legend:
Experiment in all cases: growth of human tumour cells (NCI), 48 h
786-0 renal = system: 786-0 renal
A498 renal = system: A498 renal
A549 NSCLC = system: A549 NSCLC
ACHN renal = system: ACHN renal
CAKI-1 renal = system: CAKI-1 renal
CCRF-CEM leukemia = system: CCRF-CEM leukemia
COLO 205 colon = system: COLO 205 colon
DLD-1 colon = system: DLD-1 colon
DMS 114 small cell lung = system: DMS 114 small cell lung
DMS 273 small cell lung = system: DMS 273 small cell lung
EKVX NSCLC = system: EKVX NSCLC
HCC-2998 colon = system: HCC-2998 colon
HCT-116 colon = system: HCT-116 colon
HCT-15 colon = system: HCT-15 colon
HL-60(TB) leukemia = system: HL-60(TB) leukemia
HOP-18 NSCLC = system: HOP-18 NSCLC
HOP-62 NSCLC = system: HOP-62 NSCLC
HOP-92 NSCLC = system: HOP-92 NSCLC
HT29 colon = system: HT29 colon
IGROV1 ovarian = system: IGROV1 ovarian
K-562 leukemia = system: K-562 leukemia
KM12 colon = system: KM12 colon
KM20L2 colon = system: KM20L2 colon
LOX IMVI melanoma = system: LOX IMVI melanoma
LXFL 529 NSCLC = system: LXFL 529 NSCLC
M14 melanoma = system: M14 melanoma
M19-MEL melanoma = system: M19-MEL melanoma
MALME-3M melanoma = system: MALME-3M melanoma
MOLT-4 leukemia = system: MOLT-4 leukemia
NCI-H226 lung = system: NCI-H226 lung
NCI-H23 lung = system: NCI-H23 lung
NCI-H460 lung = system: NCI-H460 lung
NCI-H522 lung = system: NCI-H522 lung
OVCAR-3 ovarian = system: OVCAR-3 ovarian
OVCAR-4 ovarian = system: OVCAR-4 ovarian
OVCAR-5 ovarian = system: OVCAR-5 ovarian
OVCAR-8 ovarian = system: OVCAR-8 ovarian
RPMI-8226 leukemia = system: RPMI-8226 leukemia
RXF 393 renal = system: RXF 393 renal
RXF-631 renal = system: RXF-631 renal
SF-268 CNS = system: SF-268 CNS
SF-295 CNS = system: SF-295 CNS
SF-539 CNS = system: SF-539 CNS
SK-MEL-2 melanoma = system: SK-MEL-2 melanoma
SK-MEL-28 melanoma = system: SK-MEL-28 melanoma
SK-MEL-5 melanoma = system: SK-MEL-5 melanoma
SK-OV-3 ovarian = system: SK-OV-3 ovarian
SN12C renal = system: SN12C renal
SNB-19 CNS = system: SNB-19 CNS
SNB-75 CNS = system: SNB-75 CNS
SNB-78 CNS = system: SNB-78 CNS
SR leukemia = system: SR leukemia
SW-620 colon = system: SW-620 colon
TK-10 renal = system: TK-10 renal
U251 CNS = system: U251 CNS
UACC-257 melanoma = system: UACC-257 melanoma
UACC-62 melanoma = system: UACC-62 melanoma
UO-31 renal = system: UO-31 renal
XF 498 CNS = system: XF 498 CNS

Question: What does the source list for CN1CCC(=O)/C(=C/c2ccccc2)C1?
Answer: TGI (786-0 renal): 25.2 µM; TGI (A498 renal): 33 µM; TGI (A549 NSCLC): 34.3 µM; TGI (ACHN renal): 32.4 µM; TGI (CAKI-1 renal): 33.9 µM; TGI (CCRF-CEM leukemia): 50.7 µM; TGI (COLO 205 colon): 28.3 µM; TGI (DLD-1 colon): 12.5 µM; TGI (DMS 114 small cell lung): 24 µM; TGI (DMS 273 small cell lung): 14.9 µM; TGI (EKVX NSCLC): 40.5 µM; TGI (HCC-2998 colon): 23.6 µM; TGI (HCT-116 colon): 3.25 µM; TGI (HCT-15 colon): > 50 µM; TGI (HL-60(TB) leukemia): 41.5 µM; TGI (HOP-18 NSCLC): 32.2 µM; TGI (HOP-62 NSCLC): 40.2 µM; TGI (HOP-92 NSCLC): 31.9 µM; TGI (HT29 colon): 11 µM; TGI (IGROV1 ovarian): 33.5 µM; TGI (K-562 leukemia): > 28.9 µM; TGI (KM12 colon): 5.28 µM; TGI (KM20L2 colon): 26.6 µM; TGI (LOX IMVI melanoma): 14.6 µM; TGI (LXFL 529 NSCLC): 17.6 µM; TGI (M14 melanoma): 26.7 µM; TGI (M19-MEL melanoma): 18.4 µM; TGI (MALME-3M melanoma): 35.4 µM; TGI (MOLT-4 leukemia): 34.3 µM; TGI (NCI-H226 lung): 32.2 µM; TGI (NCI-H23 lung): 36.1 µM; TGI (NCI-H460 lung): 41.8 µM; TGI (NCI-H522 lung): 33.6 µM; TGI (OVCAR-3 ovarian): 26.2 µM; TGI (OVCAR-4 ovarian): 32.5 µM; TGI (OVCAR-5 ovarian): 29.3 µM; TGI (OVCAR-8 ovarian): 51.7 µM; TGI (RPMI-8226 leukemia): 15.7 µM; TGI (RXF 393 renal): 26.8 µM; TGI (RXF-631 renal): 33.9 µM; TGI (SF-268 CNS): 43.2 µM; TGI (SF-295 CNS): 29.3 µM; TGI (SF-539 CNS): 33.3 µM; TGI (SK-MEL-2 melanoma): 42.1 µM; TGI (SK-MEL-28 melanoma): 32.7 µM; TGI (SK-MEL-5 melanoma): 33.4 µM; TGI (SK-OV-3 ovarian): 35.3 µM; TGI (SN12C renal): 28.4 µM; TGI (SNB-19 CNS): 30.8 µM; TGI (SNB-75 CNS): 20.8 µM; TGI (SNB-78 CNS): 57.6 µM; TGI (SR leukemia): 61.3 µM; TGI (SW-620 colon): 14.1 µM; TGI (TK-10 renal): 29.6 µM; TGI (U251 CNS): 19.1 µM; TGI (UACC-257 melanoma): 28.2 µM; TGI (UACC-62 melanoma): 36.9 µM; TGI (UO-31 renal): 32.6 µM; TGI (XF 498 CNS): 32.9 µM
